Earlier results on one substance are cited in patent US20170096549A1, “MULTIVALENT CATION FORMULATIONS OF PARTIALLY DESULFATED HEPARINS” (Cantex Pharmaceuticals, Inc., priority 2014, published 2017).

pKd: −log10 of the molar value. Read-outs that look alike come from different tables or passages of the source.

The subject of data set [1] is anti-coagulant activity.
For data set [2], the target named is Xa (Homo sapiens, UniProt P00742).
For data set [3], the target named is IIa (Homo sapiens, UniProt P00734+P01008).
Data set [4] concerns the target anti-thrombin III (Homo sapiens, UniProt P01008).

Sequence of anti-thrombin III (P01008 33-464, species assumed): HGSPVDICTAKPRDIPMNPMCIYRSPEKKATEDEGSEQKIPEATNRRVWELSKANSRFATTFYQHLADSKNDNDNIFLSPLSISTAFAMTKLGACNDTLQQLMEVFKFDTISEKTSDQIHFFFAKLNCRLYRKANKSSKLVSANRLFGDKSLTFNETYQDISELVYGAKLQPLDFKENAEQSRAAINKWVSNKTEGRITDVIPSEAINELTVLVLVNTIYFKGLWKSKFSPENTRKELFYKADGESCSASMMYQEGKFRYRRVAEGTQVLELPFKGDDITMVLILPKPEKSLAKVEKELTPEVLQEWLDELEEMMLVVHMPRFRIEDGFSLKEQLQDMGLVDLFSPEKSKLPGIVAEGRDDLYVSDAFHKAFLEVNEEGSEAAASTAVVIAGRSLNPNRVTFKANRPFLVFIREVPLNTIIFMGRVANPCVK
Sequence of Xa (P01008 33-464 partner): as the sequence (P01008 33-464, species assumed) above
Sequence of Xa (P00742 235-488 limits assumed): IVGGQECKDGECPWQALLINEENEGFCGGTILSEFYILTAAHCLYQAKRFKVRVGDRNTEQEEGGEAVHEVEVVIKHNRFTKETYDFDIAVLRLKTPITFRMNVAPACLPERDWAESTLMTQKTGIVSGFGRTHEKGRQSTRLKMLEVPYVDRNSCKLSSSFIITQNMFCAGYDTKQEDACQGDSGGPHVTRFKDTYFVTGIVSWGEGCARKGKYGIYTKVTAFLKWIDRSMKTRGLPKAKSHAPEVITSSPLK

For the substance Unfractionated heparin, the “anti-coagulant activity in the USP anti-coagulant assay” value in data set [1] is reported as 165-190 U/mg. In data set [2], the anti-Xa activity is 165-190 U/mg. Besides, the anti-IIa activity in data set [3] was 165-190 U/mg. Moreover, the “Kd for anti-thrombin III” value in data set [4] was ~22 µg/mL. Also, the pKd – broadly, −log10 of the Kd, conventionally taken in molar units – in data set [4] (listed as heparin) is 5.81; in data set [4] (listed as unfractionated heparin) it was ~5.81.
